According to patent US6960337B2, “Methods and compositions for treating benign gynecological disorders” (Balance Pharmaceuticals, Inc., priority 2002, dated 2005):
Where “and” joins values, the source holds several entries; their conditions need not be identical. Equal entries are not always repeated. Where two headings read alike, the source gives them in different places.

Columns and labels:
[1] = system: premenopausal women with uterine leiomyomata; assay: Uterine size (uterine volume calculated from ultrasound dimensions), Example 2; type: in vivo, human
Experimental: (§1) A 12 week study was performed to establish an effective dose of deslorelin for controlling heavy bleeding secondary to uterine leiomyomata. Forty-one women completed the study and are identified as Subject Nos. 1-41. The women were divided into test groups for treatment with intranasal deslorelin as follows:
(§2) An intranasal preparation consisting of deslorelin at the indicated concentration along with sorbitol (61.6 mg/mL), benzalkonium chloride (0.1 mg/mL), and water was prepared according to the procedure of Example 1. The preparation was administered with a commercially available nasal sprayer that delivered a 50 μL spray volume. The preparation was administered by application of 50 μL to each nostril once per day, for a total daily spray volume of 100 μL to give the indicated dose of deslorelin.
(§3) The average age of the premenopausal patients was 42.3, with similar distribution among groups. For one complete menstrual cycle prior to treatment, each woman completed a daily bleeding calendar. Eligible subjects were then treated with deslorelin at the assigned dosage once per day by intranasal application. During the 12 weeks of daily intranasal administration, each woman kept a daily bleeding calendar, completed quality of life questionnaires, and underwent clinical assessment and laboratory testing. The subjects were tracked for 6 weeks post-treatment for further assessment and to document time to recovery of menses after last drug treatment day. Clinical assessments included grading of nasal irritation (Table 3A), determination of uterine size (Table 3B), and serum hormone levels (Table 3C).

[2] = system: ovarian estrogen and progesterone production; assay: Serum hormone levels, 12 week intranasal deslorelin study (Example 2); type: in vivo, human
Experimental: Testosterone levels are also similar.
as §1, §2, §3

[3] = system: heavy bleeding secondary to uterine leiomyomata; assay: Bleeding score from daily bleeding calendar (sum of 28 day diary entries; 0 no bleeding, 5 normal flow, 10 or greater menorrhagia), Example 2; type: in vivo, human
Experimental: as §1, §2, §3

[4] = system: ovarian suppression (serum estradiol and progesterone levels); type: in vivo, human; details: for Hormone Levels: Progesterone: daily, individual subjects
Experimental: Example 4 describes a study performed in support of the invention where the nasal preparation is similar to that of Example 1, comprised of a GnRH compound, estradiol, and testosterone, was administered to healthy, premenopausal women. Three doses of the GnRH compound deslorelin were tested, 0.5 mg, 1.0 mg, and 2.0 mg. The nasal preparation was administered using a conventional metered nasal spray delivery device. The subjects received two 50 μL sprays, one in each nostril, daily for four weeks. Blood samples were collected prior to drug administration on day 1 of the study, and then at regular intervals throughout day 1. Thereafter, blood samples were collected weekly, until day 29, when blood was collected at scheduled intervals throughout the day. Serum deslorelin, estradiol, testosterone, and progesterone were quantified, and the results are shown in Tables 4A through 4C, below in Example 4.
Nine premenopausal women, ages 20 to 45 years, were recruited and randomly divided into three test groups for a 29 day study. […] The single intranasal administration consisted of a 100 μL dose delivered using a metered nasal spray device as two 50 μL sprays, one in each nostril.
An indwelling intravenous catheter was inserted in an arm vein for withdrawal of blood samples prior to drug administration and at defined intervals post administration (study day 1) of 40, 120, 240, and 480 minutes. Thereafter, weekly blood samples (study days 8, 15, and 22) were collected for determination of serum estradiol, progesterone, testosterone, and deslorelin levels. On study day 29 post administration, blood samples were drawn according to the same regimen on study day 1. After collection, all blood samples were allowed to clot at room temperature, then refrigerated. Within 24 hours of collection, serum was separated and stored frozen at −5° C. until assayed.
Serum levels of estradiol, testosterone, and progesterone were quantitated by sensitive and specific radioimmunoassay methods (Stanczyk, F. Z. et al., Am. J Obstet. Gynecol., 159(6):1540 (1988); Scott et al., Am. J Obstet. Gynecol., 130(7):817 (1978)). Prior to assay of the steroid hormones, serum was extracted with ethyl acetate:hexane (1:1) and for the testosterone assay further purified via Celite™ column chromatography, with 40% toluene to elute the testosterone. Procedural losses were followed by addition of 1000 dpm of the appropriate tritiated internal standard. The sensitivities of the estradiol, testosterone, and progesterone assays were 8 pg/mL, 4 ng/dL, and 10 ng/dL, respectively. […] Intra- and inter-assay coefficients of variation were 5% to 10% and 10% to 15%, respectively. Specificity of the assays was enhanced by eliminating interfering metabolites with extraction and/or chromatography and through the use of highly specific antisera.

[5] = cited from earlier work
[6] = 0.5 mg/day intranasal, Baseline
[7] = 0.5 mg/day intranasal, End of Week 4
[8] = 0.5 mg/day intranasal, End of Week 8
[9] = 0.5 mg/day intranasal, End of Week 12
[10] = 1 mg/day intranasal, End of Week 4
[11] = 1 mg/day intranasal, End of Week 8
[12] = 1 mg/day intranasal, End of Week 12
[13] = 2 mg/day intranasal, End of Week 4
[14] = 2 mg/day intranasal, End of Week 8
[15] = 2 mg/day intranasal, End of Week 12
[16] = 0.5-2.0 mg daily intranasal over the 12 week period

In the case of `CCNC(=O)[C@@H]1CCCN1C(=O)[C@H](CCCN=C(N)N)NC(=O)[C@H](CC(C)C)NC(=O)[C@@H](Cc1c[nH]c2ccccc12)NC(=O)[C@H](Cc1ccc(O)cc1)NC(=O)[C@H](CO)NC(=O)[C@H](Cc1c[nH]c2ccccc12)NC(=O)[C@H](Cc1cnc[nH]1)NC(=O)[C@@H]1CCC(=O)N1` [deslorelin, (pyro)Pro-His-Trp-Ser-Tyr-DTrp-Leu-Arg-Pro-ethylamide], the “Uterine Size, Mean Difference (end of week 12 minus baseline uterine volume)” value ([1]; 0.5 mg/day intranasal) is reported as −109.6 cm^3, the “Uterine Size, Mean Difference (end of week 12 minus baseline uterine volume)” value ([1]; 1 mg/day intranasal) is reported as −63.6 cm^3 and the “Uterine Size, Mean Difference (end of week 12 minus baseline uterine volume)” value ([1]; 2 mg/day intranasal) is reported as −246.5 cm^3. The “uterine volume (summary in words)” value ([1]; 0.5, 1.0, 2.0 mg daily intranasal, 12 weeks, said to correlate directly with dose) was “reduction in uterine volume”, the “Hormone Levels: Estradiol” value [2, 6] was 173 pg/mL and the “Hormone Levels: Progesterone” value [2, 6] was 641 ng/dL. For the same compound, the “Hormone Levels: Testosterone” value [2, 6] was 24 ng/dL, the “Hormone Levels: Estradiol” value [2, 7] was 47 pg/mL and the “Hormone Levels: Progesterone” value [2, 7] was 40 ng/dL. For the same compound, the “Hormone Levels: Testosterone” value [2, 7] was 19 ng/dL, the “Hormone Levels: Estradiol” value [2, 8] was 79 pg/mL and the “Hormone Levels: Progesterone” value [2, 8] was 30 ng/dL. The “Hormone Levels: Testosterone” value [2, 8] was 22 ng/dL, the “Hormone Levels: Estradiol” value [2, 9] was 66 pg/mL and the “Hormone Levels: Progesterone” value [2, 9] was 37 ng/dL. For the same compound, the “Hormone Levels: Testosterone” value [2, 9] was 23 ng/dL, the “Hormone Levels: Estradiol” value ([2]; 1 mg/day intranasal, Baseline) was 123 pg/mL and the “Hormone Levels: Progesterone” value ([2]; 1 mg/day intranasal, Baseline) was 480 ng/dL. The “Hormone Levels: Testosterone” value ([2]; 1 mg/day intranasal, Baseline) was 26 ng/dL, the “Hormone Levels: Estradiol” value [2, 10] was 51 pg/mL and the “Hormone Levels: Progesterone” value [2, 10] was 12 ng/dL. For the same compound, the “Hormone Levels: Testosterone” value [2, 10] was 22 ng/dL, the “Hormone Levels: Estradiol” value [2, 11] was 95 pg/mL and the “Hormone Levels: Progesterone” value [2, 11] was 25 ng/dL. The “Hormone Levels: Testosterone” value [2, 11] was 20 ng/dL, the “Hormone Levels: Estradiol” value [2, 12] was 30 pg/mL and the “Hormone Levels: Progesterone” value [2, 12] was 10 ng/dL. The “Hormone Levels: Testosterone” value [2, 12] was 16 ng/dL, the “Hormone Levels: Estradiol” value ([2]; 2 mg/day intranasal, Baseline) was 184 pg/mL and the “Hormone Levels: Progesterone” value ([2]; 2 mg/day intranasal, Baseline) was 337 ng/dL. The “Hormone Levels: Testosterone” value ([2]; 2 mg/day intranasal, Baseline) was 34 ng/dL, the “Hormone Levels: Estradiol” value [2, 13] was 14 pg/mL and the “Hormone Levels: Progesterone” value [2, 13] was 12 ng/dL. For the same compound, the “Hormone Levels: Testosterone” value [2, 13] was 16 ng/dL, the “Hormone Levels: Estradiol” value [2, 14] was 31 pg/mL and the “Hormone Levels: Progesterone” value [2, 14] was 14 ng/dL. For the same compound, the “Hormone Levels: Testosterone” value [2, 14] was 20 ng/dL, the “Hormone Levels: Estradiol” value [2, 15] was 30 pg/mL and the “Hormone Levels: Progesterone” value [2, 15] was 13 ng/dL. The “Hormone Levels: Testosterone” value [2, 15] was 20 ng/dL, the “reduction in serum estradiol levels (summary in words)” value [2, 16] was “progressive and dose dependent” and the “serum progesterone levels (summary in words)” value [2, 16] was “progressive suppression with higher dose and longer time”. The “Bleeding Score” value ([3]; 0.5 mg/day intranasal, Baseline Score) was 10.9, the “Bleeding Score” value ([3]; 0.5 mg/day intranasal, Weeks 1-4) was 6.6 and the “Bleeding Score” value ([3]; 0.5 mg/day intranasal, Weeks 5-8) was 3.5. The “Bleeding Score” value ([3]; 0.5 mg/day intranasal, Weeks 9-12) was 2.6, the “Bleeding Score” value ([3]; 1 mg/day intranasal, Baseline Score) was 10.8 and the “Bleeding Score” value ([3]; 1 mg/day intranasal, Weeks 1-4) was 7.8. The “Bleeding Score” value ([3]; 1 mg/day intranasal, Weeks 5-8) was 0.4, the “Bleeding Score” value ([3]; 1 mg/day intranasal, Weeks 9-12) was 1.7 and the “Bleeding Score” value ([3]; 2 mg/day intranasal, Baseline Score) was 14.1. The “Bleeding Score” value ([3]; 2 mg/day intranasal, Weeks 1-4) was 6.6, the “Bleeding Score” value ([3]; 2 mg/day intranasal, Weeks 5-8) was 1.2 and the “Bleeding Score” value ([3]; 2 mg/day intranasal, Weeks 9-12) was 0.6. The “effectiveness (reduction of bleeding and uterine size), in words” value ([3]; all tested doses (0.5, 1.0, 2.0 mg)) was “partially or completely effective”, the “bleeding score (summary in words)” value ([3]; end of the three month study) was “marked improvement” and the “Hormone Levels: Progesterone” value ([4]; 0.5 mg/mL Deslorelin nasal preparation with estradiol and testosterone, Study Day 1, 0 min) was 100 ng/dL and 90 ng/dL and 110 ng/dL. For the same compound, the “Hormone Levels: Progesterone” value ([4]; 0.5 mg/mL Deslorelin nasal preparation with estradiol and testosterone, Study Day 8) was 90 ng/dL and 50 ng/dL and 110 ng/dL, the “Hormone Levels: Progesterone” value ([4]; 0.5 mg/mL Deslorelin nasal preparation with estradiol and testosterone, Study Day 15) was 100 ng/dL and 40 ng/dL and the “Hormone Levels: Progesterone” value ([4]; 0.5 mg/mL Deslorelin nasal preparation with estradiol and testosterone, Study Day 22) was 40 ng/dL (2×) and 50 ng/dL. For the same compound, the “Hormone Levels: Progesterone” value ([4]; 0.5 mg/mL Deslorelin nasal preparation with estradiol and testosterone, Study Day 29, 0 min) was 100 ng/dL and 60 ng/dL and 70 ng/dL, the “Hormone Levels: Progesterone” value ([4]; 1.0 mg/mL Deslorelin nasal preparation with estradiol and testosterone, Study Day 8) was 50 ng/dL (2×) and 80 ng/dL and the “Hormone Levels: Progesterone” value ([4]; 1.0 mg/mL Deslorelin nasal preparation with estradiol and testosterone, Study Day 15) was 50 ng/dL and 30 ng/dL and 70 ng/dL. For the same compound, the “Hormone Levels: Progesterone” value ([4]; 1.0 mg/mL Deslorelin nasal preparation with estradiol and testosterone, Study Day 22) was 50 ng/dL (2×) and 60 ng/dL, the “Hormone Levels: Progesterone” value ([4]; 1.0 mg/mL Deslorelin nasal preparation with estradiol and testosterone, Study Day 29, 0 min) was 60 ng/dL and 40 ng/dL and 100 ng/dL and the “Hormone Levels: Progesterone” value ([4]; 2.0 mg/mL Deslorelin nasal preparation with estradiol and testosterone, Study Day 1, 0 min) was 80 ng/dL and 30 ng/dL and 90 ng/dL. For the same compound, the “Hormone Levels: Progesterone” value ([4]; 2.0 mg/mL Deslorelin nasal preparation with estradiol and testosterone, Study Day 8) was 50 ng/dL (2×) and 20 ng/dL, the “Progesterone levels during the treatment interval” value ([4]; all three deslorelin doses, generally, indicating that women were anovulatory) was “less than 80 ng/dL” and the “Serum levels of estradiol on day 29” value ([4]; in vivo) was 0.014 to 0.103 ng/mL.
In the case of `OC[C@H]1O[C@@H]2O[C@H]3[C@H](O)[C@@H](O)[C@@H](O[C@H]4[C@H](O)[C@@H](O)[C@@H](O[C@H]5[C@H](O)[C@@H](O)[C@@H](O[C@H]6[C@H](O)[C@@H](O)[C@@H](O[C@H]7[C@H](O)[C@@H](O)[C@@H](O[C@H]8[C@H](O)[C@@H](O)[C@@H](O[C@H]9[C@H](O)[C@@H](O)[C@@H](O[C@H]%10[C@H](O)[C@@H](O)[C@@H](O[C@H]1[C@H](O)[C@H]2O)O[C@@H]%10CO)O[C@@H]9CO)O[C@@H]8CO)O[C@@H]7CO)O[C@@H]6CO)O[C@@H]5CO)O[C@@H]4CO)O[C@@H]3CO` [δ-cyclodextrin], the “water solubility (at 25° C., g/100 mL)” value [5] is listed as 8.19 g/100 mL.
